Results from ChEMBL document CHEMBL1201862, “PubChem BioAssay data set” (2004).
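96-well plates; 48 h exposure; 5 concentrations. Endpoints by linear interpolation between flanking doses. Not reached: highest tested concentration assigned. The concentration for 50% growth inhibition is given as GI50.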 Activity calls are given as the source filed them. No stated cut-off is given here; in the data, active = GI50 up to about 1.1 µM and inactive = higher.

Tests used:
Assay in all cases: growth of human tumour cells (NCI), 48 h
[1] = system: A498
[2] = system: NCI-H226
[3] = system: OVCAR-8
[4] = system: SK-MEL-5
[5] = system: SF-268
[6] = system: BT-549
[7] = system: UACC-257
[8] = system: HT-29
[9] = system: HCT-116
[10] = system: SW-620
[11] = system: COLO 205
[12] = system: SF-539
[13] = system: TK-10
[14] = system: NCI-H522
[15] = system: K562
[16] = system: SK-OV-3
[17] = system: 786-0
[18] = system: OVCAR-4
[19] = system: T47D
[20] = system: MOLT-4
[21] = system: MDA-MB-231
[22] = system: HL-60
[23] = system: RPMI-8226
[24] = system: SN12C
[25] = system: DU-145
[26] = system: HOP-62
[27] = system: CCRF-CEM
[28] = system: U-251
[29] = system: NCI-H23
[30] = system: SR
[31] = system: UO-31
[32] = system: SK-MEL-2
[33] = system: SF-295
[34] = system: Hs-578T
[35] = system: SK-MEL-28
[36] = system: MDA-N
[37] = system: A549
[38] = system: UACC-62
[39] = system: IGROV-1
[40] = system: EKVX
[41] = system: OVCAR-5
[42] = system: PC-3
[43] = system: M14
[44] = system: KM12
[45] = system: OVCAR-3
[46] = system: CAKI-1
[47] = system: LOX IMVI
[48] = system: HCT-15
[49] = system: MCF7
[50] = system: NCI-H460
[51] = system: ACHN
[52] = system: SNB-75
[53] = system: SNB-19
[54] = system: MDA-MB-435
[55] = system: NCI/ADR-RES

Compound: Nc1ccn(C2CC3OCC3O2)c(=O)n1 (stereo not given)
- GI50 [1]: > 100 µM (inactive)
- GI50 [2]: > 100 µM (inactive)
- GI50 [3]: > 100 µM (inactive)
- GI50 [4]: > 100 µM (inactive)
- GI50 [5]: > 100 µM (inactive)
- GI50 [6]: > 100 µM (inactive)
- GI50 [7]: > 100 µM (inactive)
- GI50 [8]: > 100 µM (inactive)
- GI50 [9]: > 100 µM (inactive)
- GI50 [10]: > 100 µM (inactive)
- GI50 [11]: > 100 µM (inactive)
- GI50 [12]: > 100 µM (inactive)
- GI50 [13]: > 100 µM (inactive)
- GI50 [14]: > 100 µM (inactive)
- GI50 [15]: > 100 µM (inactive)
- GI50 [16]: > 100 µM (inactive)
- GI50 [17]: > 100 µM (inactive)
- GI50 [18]: > 100 µM (inactive)
- GI50 [19]: > 100 µM (inactive)
- GI50 [20]: > 100 µM (inactive)
- GI50 [21]: > 100 µM (inactive)
- GI50 [22]: > 100 µM (inactive)
- GI50 [23]: > 100 µM (inactive)
- GI50 [24]: > 100 µM (inactive)
- GI50 [25]: > 100 µM (inactive)
- GI50 [26]: > 100 µM (inactive)
- GI50 [27]: > 100 µM (inactive)
- GI50 [28]: > 100 µM (inactive)
- GI50 [29]: > 100 µM (inactive)
- GI50 [30]: > 100 µM (inactive)
- GI50 [31]: > 100 µM (inactive)
- GI50 [32]: > 100 µM (inactive)
- GI50 [33]: > 100 µM (inactive)
- GI50 [34]: > 100 µM (inactive)
- GI50 [35]: > 100 µM (inactive)
- GI50 [36]: > 100 µM (inactive)
- GI50 [37]: > 100 µM (inactive)
- GI50 [38]: > 100 µM (inactive)
- GI50 [39]: > 100 µM (inactive)
- GI50 [40]: > 100 µM (inactive)
- GI50 [41]: > 100 µM (inactive)
- GI50 [42]: > 100 µM (inactive)
- GI50 [43]: > 100 µM (inactive)
- GI50 [44]: > 100 µM (inactive)
- GI50 [45]: > 100 µM (inactive)
- GI50 [46]: > 100 µM (inactive)
- GI50 [47]: > 100 µM (inactive)
- GI50 [48]: > 100 µM
- GI50 [49]: > 100 µM (inactive)
- GI50 [50]: > 100 µM (inactive)
- GI50 [51]: > 100 µM (inactive)
- GI50 [52]: > 100 µM (inactive)
- GI50 [53]: > 100 µM (inactive)
- GI50 [54]: > 100 µM (inactive)
- GI50 [55]: > 100 µM (inactive)
